Test results: patent US20250285714A1, “A PHARMACEUTICAL PLATFORM TECHNOLOGY FOR DRUG DISCOVERY AND CONSUMER HEALTH PRODUCT DEVELOPMENT” (SINOVEDA CANADA INC., priority 2021, published 2025)

What was measured:
Assay type in all cases: cell-based, human
[1] = test system: HepG2 cells; assay: rtPCR TaqMan array of cancer pathway genes in treated HepG2 cells; details: 6 h; CBD 17, CBC 23, CBN 20, 1:1:1 17, sorafenib 12 μg/ml
Method: rt-PCR: Target cancer gene pathways will be analyzed using a custom Taqman array card exploring 91 unique genes involved with a few cancer pathways.
Two million HepG2 cells in IMDM media with 20% FBS, and 1% ethanol were seeded in T75 flasks and incubated at 37° C., 7.5% CO2 until 70-80% confluent (approx. […]). The media were replenished with media containing individual cannabinoids (CBD 17 μg/ml, CBC 23 μg/ml, CBN 20 μg/ml) and cannabinoid mixture of CBD:CBC:CBN of 1:1:1 (17 μg/ml) and incubated for 6 hours prior to harvest. […] Untreated cells were included as a negative control Glyceraldehyde-3-phosphate dehydrogenase (GAPDH) was included as an endogenous control and used for normalization of the data.
RNA was extracted using Invitrogen's Dynabead mRNA DIRECT kit using the recommended protocol to provide 50 μL of a purified mRNA solution. […] of RT master mix was mixed into the mRNA solution and the mixture left to react at 37° C. for 60 minutes. Reverse transcriptase inactivation was performed at 95° C. for 5 minutes and the resulting cDNA samples were kept at 4° C. until use. Fifty-five microliters of TaqMan Fast Advance master mix were added to an equal amount of cDNA sample containing 1 μg/100 μl of cDNA, which was loaded into each card reservoir. The cards were centrifuged twice at 1200 RPM for 3 minutes in a Legend XFR centrifuge and the rtPCR reaction was conducted in a QuantStudio7 PCR instrument using the standard settings with 40 amplification cycles.
Assessment of cancer gene pathways were carried out using custom designed TaqMan array cards exploring 86 genes linked to numerous cancer related pathways. […] In addition to individual pathways, genes linked to specific cellular processes were also explored.

[2] = test system: HepG2 cells; assay: HepG2 cell proliferation XTT assay; details: HepG2 in-vitro cell model
Method: Cell assays: HepG2 cells were obtained from the American Type Culture Collection (ATCC). Cryopreserved cells in DMEM with 10% DMSO were thawed and diluted 10-fold in phenol red free DMEM media containing fetal 10% bovine serum, 100 μg/ml penicillin/streptomycin, supplemented with Glutamax™ and sodium pyruvate. Subsequently, cells were centrifuged at 20 g for 10 minutes. The cells were resuspended in the same media to a concentration of 2×10^5 cells/ml. Ninety-six well cell culture treated flat bottom plates were seeded with 7.5×10^3 HepG2 cells and incubated at 37° C., 5% CO2, >95% relative humidity for 18 hours to allow cellular adhesion after which media was replaced with like media containing 1-20% FBS and various test compounds (50 μg/ml to 50 ng/ml). […] Formazan production was measured 450 nm Varioskan lux at on a spectrophotometer. Non-specific absorption was measured at 660 nm and subtracted from the reference measurement at 450 nm. […]
Ternary cannabinoid assays: For tertiary cannabinoid compound mixtures, ratio mixtures of CBD:CBC:CBN were randomly chosen between 9:3:1 to 1:1:1 and CBN:CBC:CBD between 3:2:1 to 1:1:1 in IMDM media supplemented with 20% FBS and 1% ethanol and CBD:CBC:CBN ratios between 9:3:1 to 1:1:1 in DMEM media supplemented with 1% FBS. Cannabinoids were mixed and diluted in the media ready for serial dilution. […]

[3] = test system: HepG2 cells; assay: In-cell Western-blot protein expression in treated HepG2 cells; details: six hour treatment; CBD 17, CBC 23, CBN 20, Sorafenib 12, SCI-111 17, SCI-521 17 μg/ml
Method: In-cell Western-blot analysis: Protein expression was assessed by seeding 1000 HepG2 cells/well from cyro frozen stocks into 384 well optical bottom black culture plates from Thermo-Scientific (item 142761) in IMDM media with 20% FBS and 1% ethanol. […] After a six hour treatment, the cells were fixated with 4% formaldehyde for 15 minutes, permeated with 0.1% triton-x100 for 10 minutes, and left in blocking buffer (phosphate buffered saline (PBS) with 3% bovine serum albumin (BSA)) overnight at 4 degrees Celsius. The following day, the cells were rinsed with PBS, incubated with 25 μl PBS containing primary antibody (Table 1) for 3 hours at 25° C. Subsequently, the primary antibody was removed, cells were rinsed twice with PBS, and incubated with 25 μl of PBS containing the secondary antibody (Rabbit: Alexa Fluor 790 donkey anti-rabbit IgG (H+L) Lot 2409042; Mouse: Alexa Fluor 790 donkey anti-mouse IgG (H+L) Lot 2300923) at a concentration of 1:2000. Draq5 (1:2000) was added for normalization of data. After an hour incubation in the secondary antibody, the cells were rinsed with PBS and readings at 700 and 800 nm were acquired on a Licor Odyssey fluorescence imager with a resolution of 21 μm. Analysis was subsequently performed with Empiria Studio 2.1. A total of 5 samples were collected per antibody and the sample size was reduced to 3 for the statistical analysis.

C=C(C)[C@@H]1CCC(C)=C[C@H]1c1c(O)cc(CCCCC)cc1O [CBD, Cannabidiol, reference compound] was tested, and the “rtPCR Log2 fold change relative to untreated cells, BAD (Apoptosis)” value [1] was −1.49 Log2 fold change, the “rtPCR Log2 fold change relative to untreated cells, BAX (Apoptosis)” value [1] was −1.103 Log2 fold change and the “rtPCR Log2 fold change relative to untreated cells, BCL2 (Apoptosis)” value [1] was 4.139 Log2 fold change. The “rtPCR Log2 fold change relative to untreated cells, BCL2L1 (Apoptosis)” value [1] was −1.414 Log2 fold change, the “rtPCR Log2 fold change relative to untreated cells, CAMK1 (Ca signaling)” value [1] was −1.329 Log2 fold change and the “rtPCR Log2 fold change relative to untreated cells, CASP3 (Apoptosis)” value [1] was −1.165 Log2 fold change. For the same molecule, the “rtPCR Log2 fold change relative to untreated cells, CCND1 (Cell Cycle Arrest)” value [1] was −1.396 Log2 fold change, the “rtPCR Log2 fold change relative to untreated cells, CCND2 (Cell Cycle Arrest)” value [1] was −1.032 Log2 fold change and the “rtPCR Log2 fold change relative to untreated cells, CDK1 (Cell Cycle Arrest)” value [1] was −1.257 Log2 fold change. For the same molecule, the “rtPCR Log2 fold change relative to untreated cells, CDK4 (Cell Cycle Arrest)” value [1] was −1.517 Log2 fold change, the “rtPCR Log2 fold change relative to untreated cells, CDK6 (Cell Cycle Arrest)” value [1] was −1.224 Log2 fold change and the “rtPCR Log2 fold change relative to untreated cells, CTNNB1 (Cellular Adhesion)” value [1] was −1.164 Log2 fold change. For the same molecule, the “rtPCR Log2 fold change relative to untreated cells, GSK3B (Cellular Adhesion)” value [1] was −1.409 Log2 fold change, the “rtPCR Log2 fold change relative to untreated cells, MAP1LC3A (MAP kinase)” value [1] was −1.527 Log2 fold change and the “rtPCR Log2 fold change relative to untreated cells, MAP3K (MAP kinase)” value [1] was −1.213 Log2 fold change. The “rtPCR Log2 fold change relative to untreated cells, MAPK8 (MAP kinase)” value [1] was −2.27 Log2 fold change, the “rtPCR Log2 fold change relative to untreated cells, MITF (Drug Resistance)” value [1] was −4.196 Log2 fold change and the “rtPCR Log2 fold change relative to untreated cells, MNT (Cell Cycle Arrest)” value [1] was −1.533 Log2 fold change. For the same molecule, the “rtPCR Log2 fold change relative to untreated cells, MTOR (PI3K/AKT/MTOR)” value [1] was −1.055 Log2 fold change, the “rtPCR Log2 fold change relative to untreated cells, PAK3 (MAP kinase)” value [1] was −1.926 Log2 fold change and the “rtPCR Log2 fold change relative to untreated cells, PIK3C2A (PI3K/AKT/MTOR)” value [1] was −1.161 Log2 fold change. For the same molecule, the “rtPCR Log2 fold change relative to untreated cells, PPARG (Receptors)” value [1] was −1.826 Log2 fold change, the “rtPCR Log2 fold change relative to untreated cells, RAC1 (MAP kinase)” value [1] was −1.274 Log2 fold change and the “rtPCR Log2 fold change relative to untreated cells, RASA1 (MAP kinase)” value [1] was −1.356 Log2 fold change. For the same molecule, the “rtPCR Log2 fold change relative to untreated cells, ROCK1 (Cellular Adhesion)” value [1] was −1.013 Log2 fold change, the “rtPCR Log2 fold change relative to untreated cells, SMAD2 (TGF signaling)” value [1] was −1.437 Log2 fold change and the “rtPCR Log2 fold change relative to untreated cells, TAZ (HIPPO)” value [1] was −1.766 Log2 fold change. The “rtPCR Log2 fold change relative to untreated cells, gene name not printed (Apoptosis, row r54)” value [1] was −1.09 Log2 fold change, the “rtPCR Log2 fold change relative to untreated cells, gene name not printed (Cell Cycle Arrest, row r42)” value [1] was −1.332 Log2 fold change and the “rtPCR Log2 fold change relative to untreated cells, gene name not printed (Cellular Adhesion, row r57)” value [1] was −1.436 Log2 fold change. The “rtPCR Log2 fold change relative to untreated cells, gene name not printed (PI3K/AKT/MTOR, row r20)” value [1] was −1.565 Log2 fold change, the “rtPCR Log2 fold change relative to untreated cells, gene name not printed (PI3K/AKT/MTOR, row r22)” value [1] was −1.174 Log2 fold change and the “rtPCR Log2 fold change relative to untreated cells, gene name not printed (Receptors, row r7)” value [1] was −6.09 Log2 fold change. The “Potency/efficacy compared to sorafenib” value [2] was “more potent”, the “Protein fold change, DVLD (Cellular Adhesion)” value [3] was 1.67 Fold change and the “Protein fold change, HER2 (Receptor)” value [3] was 1.34 Fold change. For the same molecule, the “Protein fold change, MEK PO4 (MAP kinase/PI3K)” value [3] was 1.40 Fold change, the “Protein fold change, MET PO4 (Receptor)” value [3] was 1.52 Fold change and the “Protein fold change, PI3K (MAP kinase/PI3K)” value [3] was 2.05 Fold change. The “Protein fold change, PTEN (MAP kinase/PI3K)” value [3] was 0.80 Fold change, the “Protein fold change, TEAD2 (HIPPO signaling)” value [3] was 1.46 Fold change and the “Protein fold change, VEGA (Angiogenesis)” value [3] was 1.33 Fold change. For the same molecule, the “Protein fold change, c-MYC (Apoptosis)” value [3] was 1.55 Fold change and the “Protein fold change, p53 (Apoptosis)” value [3] was 1.28 Fold change.
